{"source": "ChEMBL document CHEMBL1127747", "about": "“The effect of the aromatic rings of taxol on biological activity and solution conformation: synthesis and evaluation of saturated taxol and taxotere analogues” (1994)", "key": {"[1]": {"assay": "In vitro cytotoxic activity was evaluated by microtubule assembly assay relative to taxol; ED50/ED50", "format": "functional"}, "B16": {"system": "B16", "assay": "In vitro cytotoxic activity was evaluated against B16 melanoma cells relative to taxol; ED50/ED50", "format": "functional"}}}
{"smiles": "CC(=O)O[C@H]1C(=O)[C@@]2(C)C([C@H](OC(=O)C3CCCCC3)[C@]3(O)C[C@H](OC(=O)[C@H](O)C(NC(=O)C4CCCCC4)C4CCCCC4)C(C)=C1C3(C)C)[C@]1(OC(C)=O)CO[C@@H]1C[C@@H]2O", "note": "(some centres not stated)", "values": [{"measurement": "Ratio", "setting": "[1]", "value": 0.47}, {"measurement": "Ratio", "setting": "B16", "value": 1.6}]}
{"smiles": "CC(=O)O[C@H]1C(=O)[C@@]2(C)C([C@H](OC(=O)c3ccccc3)[C@]3(O)C[C@H](OC(=O)[C@H](O)C(NC(=O)c4ccccc4)C4CCCCC4)C(C)=C1C3(C)C)[C@]1(OC(C)=O)CO[C@@H]1C[C@@H]2O", "note": "(some centres not stated)", "values": [{"measurement": "Ratio", "setting": "[1]", "value": 0.29}, {"measurement": "Ratio", "setting": "B16", "value": 0.91}]}
{"smiles": "CC(=O)O[C@@]12CO[C@@H]1C[C@H](O)[C@@]1(C)C(=O)[C@H](O)C3=C(C)[C@@H](OC(=O)[C@H](O)[C@@H](NC(=O)OC(C)(C)C)c4ccccc4)C[C@@](O)([C@@H](OC(=O)c4ccccc4)[C@H]21)C3(C)C.O.O.O", "note": "[DOCETAXEL]", "values": [{"measurement": "Ratio", "setting": "[1]", "value": 0.45}, {"measurement": "Ratio", "setting": "B16", "value": 0.41}]}
{"smiles": "CC(=O)O[C@H]1C(=O)[C@@]2(C)C([C@H](OC(=O)C3CCCCC3)[C@]3(O)C[C@H](OC(=O)[C@H](O)C(NC(=O)OC(C)(C)C)c4ccccc4)C(C)=C1C3(C)C)[C@]1(OC(C)=O)CO[C@@H]1C[C@@H]2O", "note": "(some centres not stated)", "values": [{"measurement": "Ratio", "setting": "[1]", "value": 0.67}, {"measurement": "Ratio", "setting": "B16", "value": 1.1}]}
{"smiles": "CC(=O)O[C@H]1C(=O)[C@@]2(C)C([C@H](OC(=O)c3ccccc3)[C@]3(O)C[C@H](OC(=O)[C@H](O)C(NC(=O)OC(C)(C)C)c4ccccc4)C(C)=C1C3(C)C)[C@]1(OC(C)=O)CO[C@@H]1C[C@@H]2O", "note": "(some centres not stated)", "values": [{"measurement": "Ratio", "setting": "[1]", "value": 0.55}, {"measurement": "Ratio", "setting": "B16", "value": 0.23}]}
{"smiles": "CC(=O)O[C@H]1C(=O)[C@@]2(C)[C@H]([C@H](OC(=O)c3ccccc3)[C@]3(O)C[C@H](OC(=O)[C@H](O)[C@@H](NC(=O)c4ccccc4)c4ccccc4)C(C)=C1C3(C)C)[C@]1(OC(C)=O)CO[C@@H]1C[C@@H]2O", "note": "[PACLITAXEL]", "values": [{"measurement": "Ratio", "setting": "[1]", "value": 1}, {"measurement": "Ratio", "setting": "B16", "value": 1}]}
